Assay results reported in ChEMBL document CHEMBL5725824, “Aminochromane, aminothiochromane and amino-1,2,3,4-tetrahydroquinoline derivatives, pharmaceutical compositions containing them, and their use in therapy” (2017).

Target: Sodium- and chloride-dependent glycine transporter 1 (Homo sapiens) (UniProt P48067)
Test: Radioligand Binding Assay: 1. [3H]-Glycine uptake into recombinant CHO cells expressing human GlyT1: Human GlyT1c expressing recombinant hGlyT1c_5_CHO cells were plated at 20,000 cells per well in 96 well Cytostar-T scintillation microplates (Amersham Biosciences) and cultured to sub-confluency for 24 h. For glycine uptake assays the culture medium was aspirated and the cells were washed once …

Sequence of Sodium- and chloride-dependent glycine transporter 1 (Homo sapiens) (P48067 whole entry, looked up): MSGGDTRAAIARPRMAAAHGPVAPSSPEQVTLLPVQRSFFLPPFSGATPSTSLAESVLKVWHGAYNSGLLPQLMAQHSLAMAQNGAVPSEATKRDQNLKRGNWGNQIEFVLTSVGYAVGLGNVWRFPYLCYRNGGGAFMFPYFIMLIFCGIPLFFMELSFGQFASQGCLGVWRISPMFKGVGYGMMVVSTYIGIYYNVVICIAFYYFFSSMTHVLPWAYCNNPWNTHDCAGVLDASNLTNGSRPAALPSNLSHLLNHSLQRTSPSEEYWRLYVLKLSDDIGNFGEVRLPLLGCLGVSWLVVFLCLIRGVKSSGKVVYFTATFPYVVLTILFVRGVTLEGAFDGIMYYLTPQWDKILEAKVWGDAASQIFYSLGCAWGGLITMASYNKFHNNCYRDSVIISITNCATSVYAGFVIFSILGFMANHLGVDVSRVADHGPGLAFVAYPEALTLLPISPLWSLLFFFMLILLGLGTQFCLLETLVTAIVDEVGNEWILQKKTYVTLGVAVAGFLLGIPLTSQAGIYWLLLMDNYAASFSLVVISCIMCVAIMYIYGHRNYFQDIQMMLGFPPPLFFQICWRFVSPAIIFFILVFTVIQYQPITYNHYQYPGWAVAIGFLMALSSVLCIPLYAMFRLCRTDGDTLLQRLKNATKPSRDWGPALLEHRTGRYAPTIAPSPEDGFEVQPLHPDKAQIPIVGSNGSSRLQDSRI

Ki: < 10 nM
SMILES: CNC1COc2ccc(N3CC(NS(=O)(=O)CC4CC4)C3)cc2C1Cc1ccccc1 (cis isomer)
